Data published in patent US11324832B2, “Tripartite modulators of endosomal G protein-coupled receptors” (Endosome Therapeutics, Inc., priority 2015, dated 2022).

Test system: capsaicin-evoked mechanical hyperalgesia in mice
Conditions: mouse, in vivo
Experimental: To evaluate the importance of NK1R, clathrin and dynamin, mice (C57BL/6, male, 6-10 weeks) were injected intrathecally (L3/L4) with vehicle, NK1R antagonist SR140,333, Dy4, Dy4 inact, PS2 or PS2 inact. After 30 min, intraplantar injections of vehicle or capsaicin were made into the left hindpaw. Mechanical hyperalgesia was measured by stimulation of the plantar surface of the left and right paws with von Frey filaments, and inflammatory edema was assessed by measuring left paw thickness with calipers.
Mice were acclimatized to the experimental apparatus and environment for 1-2 h on 2 successive days before experiments. Mechanical hyperalgesia was assessed by paw withdrawal to stimulation of the plantar surface of the hind-paw with graded von Frey filaments. On the day before the study, von Frey scores were measured in triplicate to establish a baseline for each animal. To assess edema of the paw, hindpaw thickness was measured using digital calipers before and after treatments. […] Capsaicin (5 μg), Complete Freund's Adjuvant (CFA, 2 mg/ml), or vehicle (capsaicin, 20% ethanol, 10% Tween 80, 70% saline; CFA, saline) was injected subcutaneously into the plantar surface of the left hindpaw (10 μl). von Frey scores (left and right paws) and paw thickness (left paw) were measured for 30-240 min after capsaicin, and 36-40 h after injection of CFA. […]

Structure (SMILES): O=C(N/N=C/c1cc(O)c(O)cc1O)c1cc2ccccc2cc1O [Dy4]
- effect on paw withdrawal responses of the uninjected right hind paw: did not affect
